pIC50: −log10 of the molar value.
Assays:
Substance-P receptor [1] = target: Substance-P receptor (Cavia porcellus, UniProt P30547); assay: Binding affinity towards Tachykinin receptor 1 binding in guinea pig cerebral cortex membranes was determined using [3H]SP as the radioligand; assay type: tissue-based, Membrane
Substance-P receptor [2] = target: T1, Substance-P receptor (Rattus norvegicus, UniProt P14600); assay: Binding affinity towards Tachykinin receptor 1 in rat cerebral cortex membranes was determined by using 125 [I]-BHSP as radioligand; assay type: cell membranes, Membrane
Substance-K receptor = target: T2, Substance-K receptor (Mesocricetus auratus, UniProt P51144); assay: Ability to displace the binding of [125I]iodohistidyl-NKA to Tachykinin receptor 2 in hamster urinary bladder membranes was determined.; assay type: cell membranes, Membrane
T2 sequence (P51144 whole entry): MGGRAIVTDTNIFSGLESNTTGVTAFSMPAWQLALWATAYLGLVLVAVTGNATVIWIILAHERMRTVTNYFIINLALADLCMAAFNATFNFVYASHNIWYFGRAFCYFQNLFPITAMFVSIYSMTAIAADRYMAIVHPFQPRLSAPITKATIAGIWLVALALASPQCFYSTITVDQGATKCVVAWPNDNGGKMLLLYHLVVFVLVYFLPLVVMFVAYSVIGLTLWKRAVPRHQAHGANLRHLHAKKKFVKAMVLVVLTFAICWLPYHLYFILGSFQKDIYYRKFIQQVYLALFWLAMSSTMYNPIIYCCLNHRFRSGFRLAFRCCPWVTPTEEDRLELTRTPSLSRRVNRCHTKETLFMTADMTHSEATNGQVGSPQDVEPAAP

Neuromedin-K receptor = target: T3, Neuromedin-K receptor (Rattus norvegicus, UniProt P16177); assay: Ability to displace the binding of [3H]-Senktide to Tachykinin receptor 3 in rat cerebral cortex membranes was determined.; assay type: cell membranes, Membrane
T3 sequence (P16177 whole entry): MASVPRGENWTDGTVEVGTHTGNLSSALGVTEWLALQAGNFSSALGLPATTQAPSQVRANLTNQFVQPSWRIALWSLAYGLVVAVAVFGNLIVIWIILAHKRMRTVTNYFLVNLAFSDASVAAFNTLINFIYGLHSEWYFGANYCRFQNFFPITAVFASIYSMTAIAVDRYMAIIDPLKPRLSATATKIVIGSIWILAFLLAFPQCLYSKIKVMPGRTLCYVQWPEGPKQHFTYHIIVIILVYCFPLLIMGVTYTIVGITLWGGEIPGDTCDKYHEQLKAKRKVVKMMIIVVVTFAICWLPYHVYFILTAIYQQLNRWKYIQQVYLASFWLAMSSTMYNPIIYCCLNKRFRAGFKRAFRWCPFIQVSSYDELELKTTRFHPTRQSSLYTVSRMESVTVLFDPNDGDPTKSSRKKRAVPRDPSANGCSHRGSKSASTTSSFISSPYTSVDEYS

Substance-P receptor [3] = target: T1, Substance-P receptor; assay: The binding affinity towards NK1 receptor in rat cerebral cortex membranes was determined by using 125 [I]-BHSP as radioligand; assay type: cell membranes, Membrane

T1 sequence (P14600 whole entry): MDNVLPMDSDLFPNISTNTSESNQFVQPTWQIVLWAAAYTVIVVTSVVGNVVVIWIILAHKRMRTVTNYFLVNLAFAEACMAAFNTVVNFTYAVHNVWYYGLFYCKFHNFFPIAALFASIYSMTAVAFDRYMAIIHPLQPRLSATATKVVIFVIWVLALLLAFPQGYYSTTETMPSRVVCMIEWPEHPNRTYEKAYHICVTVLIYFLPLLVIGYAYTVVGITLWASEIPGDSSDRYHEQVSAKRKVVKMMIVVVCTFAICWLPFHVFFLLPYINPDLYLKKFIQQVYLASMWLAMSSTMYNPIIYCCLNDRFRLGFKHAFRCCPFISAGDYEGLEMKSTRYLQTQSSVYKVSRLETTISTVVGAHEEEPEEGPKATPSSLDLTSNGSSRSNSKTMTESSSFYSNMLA
Chain of Substance-P receptor (Cavia porcellus, UniProt P30547) (P30547 whole entry): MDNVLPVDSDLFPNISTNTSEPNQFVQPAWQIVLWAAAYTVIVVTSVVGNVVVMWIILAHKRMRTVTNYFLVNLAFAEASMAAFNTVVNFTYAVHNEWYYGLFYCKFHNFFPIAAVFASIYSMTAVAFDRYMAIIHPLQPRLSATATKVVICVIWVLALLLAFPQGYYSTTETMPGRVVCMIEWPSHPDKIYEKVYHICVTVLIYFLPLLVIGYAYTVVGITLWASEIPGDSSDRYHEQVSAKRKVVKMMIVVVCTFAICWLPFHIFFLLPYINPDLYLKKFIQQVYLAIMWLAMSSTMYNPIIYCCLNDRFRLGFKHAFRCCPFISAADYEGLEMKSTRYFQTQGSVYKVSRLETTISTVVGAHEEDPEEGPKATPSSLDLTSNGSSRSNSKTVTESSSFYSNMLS

| Compound | pIC50 (Substance-P receptor [1]) | pIC50 (Substance-P receptor [2]) | pIC50 (Substance-K receptor) | pIC50 (Neuromedin-K receptor) | pIC50 (Substance-P receptor [3]) |
| --- | --- | --- | --- | --- | --- |
| COc1ccccc1CN[C@@H]1C2CCN(CC2)[C@@H]1Cc1ccccc1 | 5.82 | < 6.00 | ≤ 4.00 | ≤ 4.00 | – |
| N[C@@H]1C2CCN(CC2)[C@@H]1C(c1ccccc1)c1ccccc1 | < 5.00 | < 5.00 | ≤ 4.00 | ≤ 4.00 | – |
| Fc1ccccc1CN[C@@H]1C2CCN(CC2)[C@@H]1C(c1ccccc1)c1ccccc1 | 7.43 | 6.00 | ≤ 4.00 | ≤ 4.00 | – |
| Clc1ccccc1CCN[C@@H]1C2CCN(CC2)[C@@H]1C(c1ccccc1)c1ccccc1 | 6.80 | 5.14 | ≤ 4.00 | ≤ 4.00 | – |
| FC(F)(F)c1ccccc1CN[C@@H]1C2CCN(CC2)[C@@H]1C(c1ccccc1)c1ccccc1 | 7.48 | 6.13 | ≤ 4.00 | ≤ 4.00 | – |
| COc1ccccc1CN[C@@H]1C2CCN(CC2)[C@@H]1C(c1ccccc1)c1ccccc1 | – | – | ≤ 4.00 | ≤ 4.00 | – |
| Clc1ccccc1CCCN[C@@H]1C2CCN(CC2)[C@@H]1C(c1ccccc1)c1ccccc1 | 5.96 | – | ≤ 4.00 | ≤ 4.00 | < 5.00 |
| Cc1ccccc1CN[C@@H]1C2CCN(CC2)[C@@H]1C(c1ccccc1)c1ccccc1 | 6.64 | 6.15 | ≤ 4.00 | ≤ 4.00 | – |
| Clc1ccccc1CN[C@@H]1C2CCN(CC2)[C@@H]1C(c1ccccc1)c1ccccc1 | 8.07 | 6.96 | ≤ 4.00 | ≤ 4.00 | – |
| c1ccc(CN[C@@H]2C3CCN(CC3)[C@@H]2C(c2ccccc2)c2ccccc2)cc1 | 7.28 | 5.70 | ≤ 4.00 | ≤ 4.00 | – |
| O=C(N[C@@H]1C2CCN(CC2)[C@@H]1C(c1ccccc1)c1ccccc1)c1ccccc1Cl | < 5.00 | < 5.00 | ≤ 4.00 | ≤ 4.00 | – |
| COc1ccccc1CN[C@H]1C2CCN(CC2)[C@@H]1C(c1ccccc1)c1ccccc1 | – | – | ≤ 4.00 | ≤ 4.00 | – |
| COc1ccccc1CO[C@@H]1C2CCN(CC2)[C@@H]1C(c1ccccc1)c1ccccc1 | 6.82 | ~5.00 | ≤ 4.00 | ≤ 4.00 | – |
| CSCC[C@H](NC(=O)[C@H](CC(C)C)NC(=O)CNC(=O)[C@@H](NC(=O)[C@H](Cc1ccccc1)NC(=O)[C@H](CO)NC(=O)[C@H](CC(=O)O)NC(=O)[C@@H](NC(=O)[C@H](CCCCN)NC(=O)[C@@H](N)Cc1cnc[nH]1)[C@@H](C)O)C(C)C)C(N)=O [NEUROKININ A] | 8.46 | – | – | – | – |
| CSCC[C@H](NC(=O)[C@H](CC(C)C)NC(=O)CNC(=O)[C@@H](NC(=O)[C@H](Cc1ccccc1)NC(=O)[C@H](Cc1ccccc1)NC(=O)[C@H](CC(=O)O)NC(=O)[C@H](Cc1c[nH]cn1)NC(=O)[C@H](CCSC)NC(=O)[C@@H](N)CC(=O)O)C(C)C)C(N)=O [NEUROKININ B] | 7.89 | 7.16 | – | – | – |

From ChEMBL document CHEMBL1159145 (Bioorg Med Chem Lett, 1992)
